Experiments:
[1] = Phase Ib study, CSF and plasma saracatinib levels (LC/MS/MS); format: in vivo, human; details: for estimated human brain concentration: using ratio of CSF:Brain in mouse; for trough CSF / free concentration of saracatinib in plasma / increase in CSF level: human; for free concentration of saracatinib in plasma: from trough CSF levels and FIG. 8 correlation
Procedure: Each point is from a different individual. The different dose groups are illustrated with different colors.
Each point represents trough CSF saracatinib level from a different human subject for the left three columns. The mouse trough CSF values are derived from brain levels at the 5 mg/kg/d dose that rescued memory deficits in FIGS. 3-5. Bars represent mean+sem.
Plasma samples are analyzed using solid-phase extraction followed by HPLCMS/MS. […] Calibration, quality control (QC) or blank plasma samples (200 μL) are pipetted into a standard 96-well plate. The appropriate internal standard (20 μL) is added to all samples (except the double blank to which 20 μL of methanol is added). 2% ammonium solution (1000 μL) is added to all wells and mixed. Solid-phase extraction is performed using Oasis HLB 30 mg 1 mL 96-well plates. The samples are conditioned with 1 mL methanol then 1 mL 2% ammonium solution. A 1 mL sample is loaded, washed with 1 mL 25:75, v:v methanol:water and eluted with 0.8 mL methanol. The samples are dried under oxygen-free nitrogen at 35° C. The dry residues are reconstituted in 200 μL of mobile phase, vortex mixed and transferred to 96-well plates. The vials are loaded onto HPLC-MS/MS and injected onto the reversed phase HPLC system. Calibration samples are prepared and analyzed in duplicate at LLOQ (lower limit of quantification) and ULOQ (upper limit of quantitation) and singly at all other levels. Independently prepared QC samples covering the calibration range are analyzed in duplicate and in triplicate at the dilution QC level. Plasma concentration data are quantified using an HPLC-MS/MS method and analyzed by standard methods using WinNonLin version 4.1 (Pharsight Corporation, Mountain View, Calif.).
Subjects were enrolled in three cohorts of 8 subjects each.
In certain embodiments, obtaining the scans worked as a pilot to the collection of brain metabolism data for the Phase 2a trial. In addition, saracatinib levels were measured in this study using a GLP-validated LC/MS/MS assay. […] CSF levels are about a third of plasma free drug levels.

[2] = system: mice with closed head injury (CHI) and chronic variable stress (CVS); assay: Behavioral tests after closed head injury plus chronic variable stress; format: in vivo, mouse
Procedure: FIGS. 15A-15H illustrate the finding that Fyn inhibition rescues memory deficits after repeated mild head injury combined with chronic stress. FIG. 15A: Timeline for mice undergoing 14 days of chronic variable stress (CVS) and closed head injury (CHI) or Sham CVS & CHI paradigm. On Day 15, Rotarod testing was done to assess motor impairment in a subset of mice. The mice were treated with either AZD0530 (5 mg/kg/d) or Vehicle treatment for 10 weeks starting 24 hours after the final day of injury. This was followed by one week of behavioral testing, including novel object recognition test and Morris water maze prior to perfusion and immunohistochemistry. FIG. 15B: Rotarod prior to the treatment using the Sham and Injured groups. One-way ANOVA, p>0.05. Data are mean±SEM. n=8-9/group, each dot is one mouse. FIG. 15C: Novel object recognition test using the Sham mice and Injured mice with and without AZD0530 treatment. Two-way ANOVA, F(2,64)=5.258 p=0.007 for interaction of group with object, Sidak's multiple comparison test: Novel vs Familiar for Sham Vehicle (SV): p<0.0001, for Injured Vehicle (IV): p=0.99, for Injured AZD (IA): p=0.0002. Data are mean±SEM. n=9-13/group, each dot represents one mouse. FIG. 15D: Latency to reach a hidden platform in Morris water maze across 6 blocks of 4 swims for Sham mice and Injured mice with and without AZD0530 treatment. Data are mean±SEM. n=14-17/group. Two-way ANOVA for time and group with main effect of group, p<0.0001, F (2, 41)=47.24. Tukey's multiple comparison test: SV vs IV: p<0.0001, IV vs IA: p=0.98, SV vs IA: p<0.0001. FIG. 15E: Morris water maze probe trial for Sham or Injured mice treated with Vehicle or AZD0530, showing time in the Target quadrant. One way ANOVA: F(2,39)=9.410, p=0.0005, Tukey's multiple comparison test: SV vs IV: p=0.0003, IV vs IA: p=0.12, SV vs IA: p=0.05. Data are mean±SEM. n=13-15/group, each dot is one mouse. Dashed line indicates random chance performance. FIG. 15F: A second group of mice underwent a similar 14 days of chronic variable stress (CVS) plus closed head injury (CHI) or Sham CVS & CHI paradigm, and then starting on Day 121 were treated with either AZD0530 (5 mg/kg/d) or Vehicle for 10 weeks. The mice subsequently underwent Morris water maze testing. […] Data are mean±SEM. n=8-26/group. […] Data are mean±SEM. n=8-26/group, each dot is one mouse.
The injury model was based on the combination of Closed Head Injury (CHI) and Chronic Variable Stress (CVS). The Sham mice received Sham-CHI and Sham-CVS treatments.
Closed Head Injury (CHI) is a well-established mice injury model (Sangobowale et al, 2018, Neurotrauma 35:907-917). Mice were weighed prior to receiving Sham-CHI or CHI. […] Mice were placed on a heating pad to maintain body temperature while receiving the impact, as well as during the post-injury recovery period. The mice underwent a total of 14 consecutive days of CHI injury, once per day. The site of injury alternated between right and left hemispheres on consecutive days. Each CHI injury was performed 1-3 hours after that day's CVS exposure. Injury severity was assessed using time interval between injury and recovery of the righting reflex (Grin'kina et al., 2013, PLoS One 8, e53775). The mice were placed on a heat pad both while receiving the impact, as well as the period following the impact to preserve their core body temperature. Mice were returned to vivarium after restoration of their righting reflex and this was typically less than 5 minutes. […]

[3] = Injured mice, 5 mg/kg/day from Day 15, 10 weeks

In the case of `CN1CCN(CCOc2cc(OC3CCOCC3)c3c(Nc4c(Cl)ccc5c4OCO5)ncnc3c2)CC1` [saracatinib, N-(5-chloro-benzo[d][1,3]dioxol-4-yl)-7-(2-(4-methylpiperazin-1-yl)ethoxy)-5-(tetrahydro-2H-pyran-4-yloxy)quinazolin-4-amine], the “estimated human brain concentration” value ([1]; 50 mg saracatinib free base) is reported as 3 to 7 nM, the “estimated human brain concentration” value ([1]; 100 mg saracatinib free base) is reported as 7 to 27 nM and the “estimated human brain concentration” value ([1]; 125 mg saracatinib free base) is reported as 8 to 46 nM. For the same molecule, the “trough CSF” value ([1]; 50 mg saracatinib free base daily) was 0.9 to 2.2 nM, the “free concentration of saracatinib in plasma” value (shortened to “free concentration”) ([1]; 50 mg) was 2.6 to 6.5 nM and the “trough CSF” value ([1]; 100 mg saracatinib free base daily) was 2.1 to 8.3 nM. The “free concentration” value ([1]; 100 mg) was 6.2 to 24.4 nM, the “trough CSF” value ([1]; 125 mg saracatinib free base daily) was 2.5 to 14.0 nM and the “free concentration” value ([1]; 125 mg) was 7.4 to 41.2 nM. The “increase in CSF level” value ([1]; from 50 to 100 mg) was “three-fold”, the “increase in CSF level” value ([1]; from 100 to 125 mg) was “two-fold” and the “Morris water maze learning trials” value [2, 3] was “severely impaired learning relative to Sham Vehicle”. For the same molecule, the “Morris water maze probe trial memory for platform location” value [2, 3] was “not statistically distinguishable from Sham Vehicle”, the novel object recognition ([2]; Injured mice, 5 mg/kg/day oral gavage from Day 15 (24 hours after final injury), 10 weeks) was “recognized familiar objects as successfully as Sham Vehicle mice” and the “Morris water maze probe trial memory” value ([2]; Injured mice, treatment from Day 121 (107 days after final injury), 10 weeks) was “no evidence of improved memory”. For the same molecule, the “Morris water maze latency in learning trials, Injured AZD vs Injured Vehicle” value ([2]; treatment from Day 121, 10 weeks) was “not significantly different from one another”.
